In brackets after ≈: the same amount, converted by molar mass.
Tests used:
in vivo = conditions: rabbit, topical or ocular, Ct (tissue concentration of azithromycin)
Procedure: Twelve male white New Zealand rabbits (weighing 1.8-2.3 kg) have been randomly divided in three groups (consisting of four animals each).
I Group: three instillations (animals have been sacrificed 6 hours after the first dosing)
II Group: six instillations (animals have been sacrificed 12 hours after the first dosing)
III Group: six instillations (animals have been sacrificed 24 hours after the first dosing)
Aqueous humor has been drawn away with a 23-gauge needle attached to an insulin syringe of 1 ml. After enucleation the cornea has been excised at the limbus and removed from the eyeball. All specimens have been carefully weighed, then immediately frozen at -20° C. […] Each specimen has been ground and homogenized with 1 ml of PBS (2 min., 24,000 rpm). The suspension has been mixed with an equal volume of acetonitrile and stored at 0° C. After 1 hour, the samples have been centrifuged at 0° C. […] Aqueous humor has been directly mixed with acetonitrile before being centrifuged.

[1] = solubility in aqueous solution; assay type: physicochemical; conditions: aqueous citric acid/phosphate; process of the invention (citric acid/phosphate); read-out: solubility of azithromycin in aqueous solution
From the text: Formulations containing azithromycin at concentration ranging from 0.01 to 10% w/v, more particularly between 0.3 and 5% w/v, are the most preferred.

[2] = cited from earlier work
Staphylococcus aureus = test: MIC90 for Staphylococcus aureus; assay type: cell-based
gram-negative organisms = conditions: some gram-negative organisms, compared with other macrolides; cited from earlier work
Ps. aeruginosa ATCC 9027 = test: In vitro antibacterial activity, MIC; assay type: cell-based; conditions: Pseudomonas aeruginosa
From the text: (§1) In vitro bacteriostatic/bactericidal activity of azithromycin in different ophthalmic solutions has been evaluated as a function of ([H+]). Assessment of the activity it has been carried out by standardized method recommended by the National Committee for Clinical Laboratory Standards (NCCLS). In particular, three azithromycin solutions at different pH (6.5, 7.2, 7.8) in citrate-phosphate have been examined. Accordingly, three aliquots of Mueller-Hinton broth have been adjusted to the same pH of the azithromycin solutions (three) to be tested.
(§2) MIC values (μg/ml) have been measured by turbidity standard method after incubation of azithromycin aliquots, at the different pH, ranging from 18 to 24 h. Incubation for Staphylococcus spp. and Pseudomonas spp. needs aerobic conditions whereas Streptococcus spp. and Haernophilus spp. require partial anaerobic conditions during the period of incubation (5%, CO2).
(§3) Concentration of azithromycin able to inhibit the growth of the bacteria, after the period of incubation, is defined as the minimum inhibitory concentration (MIC).

H. influenzae ATCC 9006 = test: In vitro antibacterial activity, MIC; assay type: cell-based; conditions: Haemophilus influenzae
From the text: as §1, §2, §3

H. influenzae ATCC 49247 = test: In vitro antibacterial activity, MIC; assay type: cell-based; conditions: Haemophilus influenzae
From the text: as §1, §2, §3

[3] = test system: Ps. aeruginosa ATCC 27853; test: In vitro antibacterial activity, MIC; assay type: cell-based; conditions: Pseudomonas aeruginosa
From the text: as §1, §2, §3

[4] = test system: S. epidermidis ATCC 12228; test: In vitro antibacterial activity, MIC; assay type: cell-based; conditions: Staphylococcus epidermidis
From the text: as §1, §2, §3

S. aureus ATCC 29213 = test: In vitro antibacterial activity, MIC; assay type: cell-based; conditions: Staphylococcus aureus
From the text: as §1, §2, §3

[5] = test system: St. Pneumoniae ATCC 49619; test: In vitro antibacterial activity, MIC; assay type: cell-based; conditions: Streptococcus pneumoniae
From the text: as §1, §2, §3

S. aureus ATCC 6538P = test: In vitro antibacterial activity, MIC; assay type: cell-based; conditions: Staphylococcus aureus, ATCC6538P
From the text: as §1, §2, §3

S. aureus ATCC 25923 = test: In vitro antibacterial activity, MIC; assay type: cell-based; conditions: Staphylococcus aureus
From the text: as §1, §2, §3

St. Pryogenes ATCC 21547 = test: In vitro antibacterial activity, MIC; assay type: cell-based
From the text: as §1, §2, §3

Compound `CC[C@H]1OC(=O)[C@H](C)[C@@H](O[C@H]2C[C@@](C)(OC)[C@@H](O)[C@H](C)O2)[C@H](C)[C@@H](O[C@@H]2O[C@H](C)C[C@H](N(C)C)[C@H]2O)[C@](C)(O)C[C@@H](C)CN(C)[C@H](C)[C@@H](O)[C@]1(C)O` [azithromycin] has a concentration at 24 h (in vivo) of 216000 ng/g, a concentration at 12 h (in vivo; Average) of 222000 ng/g and a concentration at 24 h (in vivo; Average) of 169000 ng/g. For the same compound, the solubility [1] was over 100 mg/mL, the “intracellular distribution into specific tissues” value ([2]; after oral administration) was “extensive intracellular distribution” and the Half-life ([2]; in vivo) was “extremely elevated”. For the same compound, the MIC90 (Staphylococcus aureus) was 2.25 µg/mL (≈ 3 µM), the antibacterial activity (gram-negative organisms) was “superior antibacterial activity” and the MIC (Ps. aeruginosa ATCC 9027; ATCC9027, pH 6.5) was 200 µg/mL (≈ 267 µM). It also gave an MIC (Ps. aeruginosa ATCC 9027; ATCC9027, pH 7.2) of 25 µg/mL (≈ 33.4 µM), an MIC (Ps. aeruginosa ATCC 9027; ATCC9027, pH 7.8) of 6.25 µg/mL (≈ 8.34 µM) and an MIC (H. influenzae ATCC 9006; ATCC9006, pH 6.5) of 3 µg/mL (≈ 4.01 µM). The MIC (H. influenzae ATCC 9006; ATCC9006, pH 7.2) was 2 µg/mL (≈ 2.67 µM), the MIC (H. influenzae ATCC 9006; ATCC9006, pH 7.8) was 0.5 µg/mL (≈ 0.668 µM) and the MIC (H. influenzae ATCC 49247; ATCC49247, pH 6.5) was 3 µg/mL (≈ 4.01 µM). It also gave an MIC (H. influenzae ATCC 49247; ATCC49247, pH 7.2) of 2 µg/mL (≈ 2.67 µM), an MIC (H. influenzae ATCC 49247; ATCC49247, pH 7.8) of 1 µg/mL (≈ 1.34 µM) and an MIC ([3]; ATCC27853, pH 6.5) of over 200 µg/mL. For the same compound, the MIC ([3]; ATCC27853, pH 7.2) was 50 µg/mL (≈ 66.8 µM), the MIC ([3]; ATCC27853, pH 7.8) was 12.5 µg/mL (≈ 16.7 µM) and the MIC ([4]; ATCC12228, pH 6.5) was 2.5 µg/mL (≈ 3.34 µM). For the same compound, the MIC ([4]; ATCC12228, pH 7.2) was 1.5 µg/mL (≈ 2 µM), the MIC ([4]; ATCC12228, pH 7.8) was 0.75 µg/mL (≈ 1 µM) and the MIC (S. aureus ATCC 29213; ATCC29213, pH 6.5) was 3.25 µg/mL (≈ 4.34 µM). It also gave an MIC (S. aureus ATCC 29213; ATCC29213, pH 7.2) of 2.25 µg/mL (≈ 3 µM), an MIC (S. aureus ATCC 29213; ATCC29213, pH 7.8) of 1 µg/mL (≈ 1.34 µM) and an MIC ([5]; ATCC49619, pH 6.5) of 1.25 µg/mL (≈ 1.67 µM). For the same compound, the MIC ([5]; ATCC49619, pH 7.2) was 0.25 µg/mL (≈ 0.334 µM), the MIC ([5]; ATCC49619, pH 7.8) was 0.15 µg/mL (≈ 0.2 µM) and the MIC (S. aureus ATCC 6538P; pH 6.5) was 2.25 µg/mL (≈ 3 µM). It also gave an MIC (S. aureus ATCC 6538P; pH 7.2) of 1 µg/mL (≈ 1.34 µM), an MIC (S. aureus ATCC 6538P; pH 7.8) of 0.75 µg/mL (≈ 1 µM) and an MIC (S. aureus ATCC 25923; ATCC25923, pH 6.5) of 3 µg/mL (≈ 4.01 µM). It also gave an MIC (S. aureus ATCC 25923; ATCC25923, pH 7.2) of 1.5 µg/mL (≈ 2 µM), an MIC (S. aureus ATCC 25923; ATCC25923, pH 7.8) of 0.75 µg/mL (≈ 1 µM) and an MIC (St. Pryogenes ATCC 21547; pH 6.5) of 1.5 µg/mL (≈ 2 µM). The MIC (St. Pryogenes ATCC 21547; pH 7.2) was 0.37 µg/mL (≈ 0.494 µM) and the MIC (St. Pryogenes ATCC 21547; pH 7.8) was 0.2 µg/mL (≈ 0.267 µM).

From patent US6277829A, “Process for preparing of aqueous formulation for opthalmic use” (S.I.F.I. Societa Industria Farmaceutica Italiana S.p.A., priority 1999, dated 2001)
